The source of these data is ChEMBL document CHEMBL6087456 (J Med Chem, 2025).

In brackets after ≈: the same amount, converted by molar mass. Bounds are passed on as bounds.

A short description of data set [1]: Ratio of drug concentration in Sprague-Dawley rat brain to plasma at 1 uM measured for 5 to 60 mins by LCMS analysis. The class given is ADME, cell-free. As to conditions: time 5-60 min.
The target in data set [2] is T1, Dihydroorotate dehydrogenase (quinone), mitochondrial (Plasmodium falciparum (isolate 3D7), UniProt Q08210).
T1 sequence (Q08210 whole entry): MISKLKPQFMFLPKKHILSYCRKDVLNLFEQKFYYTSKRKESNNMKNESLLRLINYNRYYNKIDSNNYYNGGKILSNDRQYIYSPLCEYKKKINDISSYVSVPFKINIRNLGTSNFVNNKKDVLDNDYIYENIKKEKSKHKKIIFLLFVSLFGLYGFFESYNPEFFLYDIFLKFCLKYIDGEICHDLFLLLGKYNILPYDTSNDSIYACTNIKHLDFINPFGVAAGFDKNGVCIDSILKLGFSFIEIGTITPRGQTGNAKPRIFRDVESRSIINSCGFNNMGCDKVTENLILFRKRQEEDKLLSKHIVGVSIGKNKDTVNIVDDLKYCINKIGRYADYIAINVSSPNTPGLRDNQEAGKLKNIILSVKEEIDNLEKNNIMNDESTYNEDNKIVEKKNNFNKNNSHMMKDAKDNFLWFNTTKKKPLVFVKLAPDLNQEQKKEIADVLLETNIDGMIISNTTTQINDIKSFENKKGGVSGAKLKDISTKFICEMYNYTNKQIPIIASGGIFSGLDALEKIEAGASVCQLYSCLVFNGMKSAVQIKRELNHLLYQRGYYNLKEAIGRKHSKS
The data set can be described thus: Inhibition of N-terminal His6-tagged recombinant Plasmodium falciparum DHODH (158 to 569 residues) N-terminally truncated soluble domain extracted from Escherichia coli phage resistant BL21-DE3 using CoQD/DHA/DCIP as substrates.

Data set [3] has as its system Plasmodium falciparum. Nature of the data set: Antiparasitic activity against asexual blood stage Plasmodium falciparum 3D7 incubated for 72 hrs by SYBR Green assay. The data set is classed as functional, organism-based. As to conditions: 3D7, 72 h.
The nature of data set [4]: Partition coefficient, log D of compound at pH 7.4 measured after 24 hrs by LCMS analysis. The data set is classed as physicochemical. As to conditions: octanol/water, pH 7.4, 24 h.
In data set [5] the target is Dihydroorotate dehydrogenase (quinone), mitochondrial (Homo sapiens, UniProt Q02127). The data set can be described thus: Inhibition of C-terminal His6-tagged recombinant human DHODH (29 to 395 residues) N-terminally truncated soluble domain extracted from Escherichia coli phage resistant BL21-DE3 using CoQD/DHA/DCIP as substrates.
Sequence of Dihydroorotate dehydrogenase (quinone), mitochondrial (Homo sapiens, UniProt Q02127) (Q02127 whole entry, the tested form may be a part): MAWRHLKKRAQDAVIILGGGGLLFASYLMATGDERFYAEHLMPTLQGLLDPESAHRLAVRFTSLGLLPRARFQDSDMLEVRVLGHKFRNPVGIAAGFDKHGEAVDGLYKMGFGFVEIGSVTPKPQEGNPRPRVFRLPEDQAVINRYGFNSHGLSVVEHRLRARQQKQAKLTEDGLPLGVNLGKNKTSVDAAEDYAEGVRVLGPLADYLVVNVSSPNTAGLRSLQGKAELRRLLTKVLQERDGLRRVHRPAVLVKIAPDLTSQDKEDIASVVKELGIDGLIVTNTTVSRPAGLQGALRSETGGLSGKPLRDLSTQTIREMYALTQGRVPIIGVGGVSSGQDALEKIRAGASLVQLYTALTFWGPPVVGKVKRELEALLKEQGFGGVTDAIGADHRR
Data set [6] can be described thus: Metabolic stability in human liver microsomes assessed as intrinsic clearance at 0.5 uM incubated for 60 mins in presence of NADPH by tandem quadrupole-Time of Flight MS. The data set is classed as ADME, Microsome. To be noted: 1 h. (In general: Microsomes from liver hold many membrane-bound enzymes, among them those of drug oxidation.)
Data set [7] can be described thus: Kinetic solubility of compound at pH 6.5 measured after 30 mins by nephelometry. To be noted: buffer; for solubility kinetic at 0.5 h: pH 6.5, read-out: Kinetic_solubility. The data set is classed as physicochemical.
Data set [8] is described as follows: Protein binding in human hepatocytes. The data set is classed as ADME, cell-based, Hepatocyte. As to conditions: read-out: PB (converted).
The target of a further data set is Albumin (Homo sapiens, UniProt P02768). The data set can be described thus: Protein binding to albumin (unknown origin) in ALBUMAX medium. The class given is ADME. To be noted: read-out: PB (converted).
Sequence of Albumin (P02768 whole entry): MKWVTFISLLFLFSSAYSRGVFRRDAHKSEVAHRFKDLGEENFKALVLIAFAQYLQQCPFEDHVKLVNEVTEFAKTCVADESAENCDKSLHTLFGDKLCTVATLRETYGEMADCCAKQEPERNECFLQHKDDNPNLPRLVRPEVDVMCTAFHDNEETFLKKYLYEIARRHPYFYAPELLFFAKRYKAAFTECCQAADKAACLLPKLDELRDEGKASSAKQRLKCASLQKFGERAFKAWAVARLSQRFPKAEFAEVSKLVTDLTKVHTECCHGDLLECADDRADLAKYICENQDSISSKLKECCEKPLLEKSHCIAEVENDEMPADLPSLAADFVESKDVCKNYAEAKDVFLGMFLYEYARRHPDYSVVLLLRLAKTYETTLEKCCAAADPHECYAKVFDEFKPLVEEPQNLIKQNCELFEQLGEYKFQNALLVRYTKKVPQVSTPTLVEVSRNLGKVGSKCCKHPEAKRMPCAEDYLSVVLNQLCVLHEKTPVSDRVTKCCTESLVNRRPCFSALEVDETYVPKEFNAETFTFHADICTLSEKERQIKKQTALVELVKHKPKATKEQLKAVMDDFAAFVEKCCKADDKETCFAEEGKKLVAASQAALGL
The nature of data set [9]: Oral absorption in overnight-fasted male Sprague-Dawley rat at 3 mg/kg measured upto 72 hrs by LCMS analysis. As to conditions: in vivo. The data set is classed as ADME, organism-based.
Data set [10] in a line: Half life in overnight-fasted male Sprague-Dawley rat at 3 mg/kg, po or 1 mg/kg, iv measured upto 72 hrs by LCMS analysis. The class given is ADME, organism-based. To be noted: in vivo.
Data set [11] in a line: Plasma protein binding in human measured for 6 hrs by rapid equilibrium dialysis. The data set is classed as ADME, cell-free. Background: Equilibrium dialysis compares concentrations on both sides of a semipermeable membrane.
Data set [12] is described as follows: Plasma protein binding in rat measured for 6 hrs by rapid equilibrium dialysis. The class given is ADME, cell-free.
The subject of data set [13] is Plasmodium falciparum. The data set can be described thus: Antiparasitic activity against Plasmodium falciparum 3D7 assessed as parasitic reduction ratio at 10 times EC50 pretreated for 120 hrs followed by compound removal and replacement of media without compound measured after 28 days by cell killing assay. The class given is functional.
Data set [14] in a line: Volume of distribution at steady state in overnight-fasted male Sprague-Dawley rat at 3 mg/kg, po or 1 mg/kg, iv measured upto 72 hrs by LCMS analysis. The data set is classed as ADME, organism-based. To be noted: in vivo.

For `CCn1cc(C)c2c([C@H](N)c3ccc(C(F)(F)F)nc3)n(C)nc2c1=O`, in [1], the BPR was found to be 1.1. Besides, the values for the IC50 in [2] and in [5] were 280 nM and over 100000 nM, respectively. Besides, in the data set on Plasmodium falciparum [3], the EC50 (in general, the concentration needed to bring the measured effect to its halfway point) was 70 nM. In addition, the logD (commonly the decadic logarithm of the distribution of all forms, ionised or not, between an organic phase and buffer at a given pH) in [4] was 1.82. Further, the “intrinsic clearance (CLint)” value in [6] was under 3 µL/min/mg. For the same compound, in data set [7] (pH 6.5, 0.5 h), the Kinetic_solubility was over 320 µM.

As for `Cn1nc2c(=O)n(C3CC3)ccc2c1[C@](O)(c1cnc(C(F)(F)F)c(Cl)c1)C1CC1`, the fraction unbound in data set [8] was 0.578; at Albumin, 0.289. For the same compound, the EC50 in the data set on Plasmodium falciparum [3] turned out to be 3 nM. The compound also gave a Fa at 72 h in data set [9] of 4.6%. Besides, the t1/2 in data set [10] is 19 h. Further, the PPB in data set [11] worked out at 95.8%; in data set [12], 93%. Moreover, the IC50 (in general, the midpoint of a concentration-inhibition curve) in data set [5] is over 30000 nM. Besides, the “intrinsic clearance (CLint)” value in [6] was under 3 µL/min/mg. Moreover, in data set [7], the solubility kinetic at 0.5 h worked out at 12.5 µM (≈ 5.49 µg/mL).

`CCc1nc(N)nc(N)c1-c1ccc(Cl)cc1` [PYRIMETHAMINE]: the “log(activity)” value in the data set on Plasmodium falciparum [13] is given as 3.5.

On to `Cn1nc2c(=O)n(C3CC3)ccc2c1[C@](O)(c1ccc(C(F)(F)F)nc1)C1CC1`, for which the EC50 with Plasmodium falciparum [3] stood at 7 nM. The same compound gave a Fa at 72 h in data set [9] of 40%. Moreover, in data set [5], the concentration for half-maximal inhibition (IC50) is over 30000 nM. The “intrinsic clearance (CLint)” value in [6] is under 3 µL/min/mg. The solubility kinetic at 0.5 h in data set [7] was 20 µM (≈ 8.09 µg/mL).

Take `CCn1ccc2c([C@@](O)(CC)c3ccc(C(F)(F)F)nc3)n(C)nc2c1=O`: the fraction unbound on Albumin was 0.821. The compound further yielded an EC50 with Plasmodium falciparum [3] of 2 nM. Besides, the t1/2 in [10] came out at 3.4 h. The compound also gave a PPB in data set [12] of 75.4%. Besides, the “intrinsic clearance (CLint)” value in data set [6] was found to be 3.6 µL/min/mg. The solubility kinetic at 0.5 h in [7] is 40 µM (≈ 15.2 µg/mL).

For `CCn1cc(C)c2c([C@H](O)c3ccc(C(F)(F)F)nc3)n(C)nc2c1=O`, the IC50 in [2] was 74 nM; in data set [5], over 100000 nM. This compound returned a 50% effective concentration (EC50) with Plasmodium falciparum [3] of 22 nM. The “intrinsic clearance (CLint)” value in [6] was under 3 µL/min/mg. In [7], the solubility kinetic at 0.5 h came out at 160 µM (≈ 58.6 µg/mL). In data set [14], this compound yielded a Vdss of 2.76 L/kg.

On to `CCn1cc(Cl)c2c(Cc3ccc(C(F)(F)F)nc3)n(C)nc2c1=O`, for which the fraction unbound on Albumin was 0.558. Further, the BPR in data set [1] was determined as 0.72. The midpoint of the response in the data set with Plasmodium falciparum [3], the EC50, lay at 14 nM. In [9], this compound returned a Fa at 72 h of 100%. For the same compound, the IC50 in [5] is 72000 nM. In addition, the “intrinsic clearance (CLint)” value in [6] stood at 14 µL/min/mg. Also, in [7], the solubility kinetic at 0.5 h was found to be 70 µM (≈ 26 µg/mL).
